Test system: respiratory epithelial cells
Conditions: lot 1, Day 7, AI method

Substance: IL-13: human IL-13 (Peprotech, Inc.) added to the medium at 50 ng/mL to stimulate respiratory epithelial cells
- AI700705 (46658_at) expression fold change: 2.4 fold
- AI809925 (53010_at) expression fold change: 3.6 fold
- AI821796 (57694_at) expression fold change: 3 fold
- AI989346 (52327_s_at) expression fold change: 2.7 fold
- AKAP2 (48035_at) expression fold change: 4.4 fold
- AKAP10 (36632_at) expression, fold change upon IL-13 stimulation: 2 fold
- ALOX15 (34636_at) expression, fold change upon IL-13 stimulation: 72.3 fold
- ARHE (35803_at) expression fold change upon IL-13 stimulation: 2.3 fold
- ARL7 (57151_at) expression fold change: 3.1 fold
- AW019985 (48826_s_at) expression fold change: 6.9 fold
- AXL (38433_at) expression, fold change upon IL-13 stimulation: 2.2 fold
- BIG2 (34484_at) expression, fold change upon IL-13 stimulation: 2.2 fold
- BST2 (39061_at) expression, fold change upon IL-13 stimulation: 3 fold
- C1S (40496_at) expression, fold change upon IL-13 stimulation: 4.8 fold
- C21orf11 (58957_at) expression fold change: 2.1 fold
- CCND3 (1795_g_at) expression fold change upon IL-13 stimulation: 2.1 fold
- CDH6 (57421_at) expression fold change: 3.8 fold
- CDH26 (46916_at) expression fold change: 8.6 fold
- CH25H (32363_at) expression, fold change upon IL-13 stimulation: 15.1 fold
- CLDN5 (38995_at) expression, fold change upon IL-13 stimulation: 2.9 fold
- CTSC (133_at) expression, fold change upon IL-13 stimulation: 2.8 fold
- CXCL16 (44095_at) expression fold change: 4 fold
- DBCCR1 (40292_at) expression, fold change upon IL-13 stimulation: 3.1 fold
- DD96 (31610_at) expression, fold change upon IL-13 stimulation: 3.3 fold
- DDIT3 (39420_at) expression, fold change upon IL-13 stimulation: 5.2 fold
- DKFZP564O0823 (41402_at) expression, fold change upon IL-13 stimulation: 3.9 fold
- DKFZP566J091 (57197_at) expression fold change: 11.3 fold
- DNAJA1 (276_at) expression fold change upon IL-13 stimulation: 2.5 fold
- DPP4 (34823_at) expression fold change upon IL-13 stimulation: 3.2 fold
- DPYD (38220_at) expression fold change upon IL-13 stimulation: 2.5 fold
- EMILIN-2 (51628_at) expression fold change: 3.1 fold
- FADS3 (43394_s_at) expression fold change: 4.5 fold
- FETUB (32620_at) expression fold change: 8.4 fold
- FETUB (33101_g_at) expression fold change: 9 fold
- FLJ10261 (43366_at) expression fold change: 10.6 fold
- FLJ10261 (43963_at) expression fold change: 8.7 fold
- FLJ14281 (50209_at) expression fold change: 2.5 fold
- FLJ20420 (46233_at) expression fold change: 2.1 fold
- FLJ22332 (56959_at) expression fold change: 3.4 fold
- G1P3 (1358_s_at) expression, fold change upon IL-13 stimulation: 2.5 fold
- GADD45G (39154_at) expression fold change upon IL-13 stimulation: 4.3 fold
- H11 (56474_at) expression fold change: 2.3 fold
- HLA-F (37420_i_at) expression, fold change upon IL-13 stimulation: 3.3 fold
- HLA-F (37421_f_at) expression, fold change upon IL-13 stimulation: 2.4 fold
- HLA-F (49203_f_at) expression fold change: 3.4 fold
- HLALS (34427_g_at) expression, fold change upon IL-13 stimulation: 2 fold
- HS3ST1 (41556_s_at) expression fold change upon IL-13 stimulation: 3.8 fold
- HSD17B2 (38178_at) expression fold change upon IL-13 stimulation: 3.1 fold
- HSPA5 (47634_at) expression fold change: 2.7 fold
- HUMRTVLH3 (34702_f_at) expression, fold change upon IL-13 stimulation: 6.1 fold
- Human hbc647 mRNA sequence (34759_at) expression, fold change upon IL-13 stimulation: 2.5 fold
- ICAMt (32640_at) expression fold change upon IL-13 stimulation: 3.1 fold
- IFI27 (425_at) expression, fold change upon IL-13 stimulation: 2.1 fold
- IFI30 (39728_at) expression, fold change upon IL-13 stimulation: 2.1 fold
- IFIT4 (38584_at) expression, fold change upon IL-13 stimulation: 4.6 fold
- IL13RA2 (1016_s_at) expression fold change upon IL-13 stimulation: 4.8 fold
- IRLB (32961_at) expression fold change: 2.5 fold
- ISG15 (1107_s_at) expression, fold change upon IL-13 stimulation: 3 fold
- KIAA0469 (37230_at) expression, fold change upon IL-13 stimulation: 2 fold
- KIAA0537 (33787_at) expression, fold change upon IL-13 stimulation: 8.8 fold
- KIAA1199 (36070_at) expression, fold change upon IL-13 stimulation: 4.3 fold
- KRT16 (601_s_at) expression fold change: 3.6 fold
- LOC57118 (51085_at) expression fold change: 2.2 fold
- LOC64116 (40456_at) expression, fold change upon IL-13 stimulation: 2.8 fold
- LRPAP1 (36194_at) expression, fold change upon IL-13 stimulation: 2.2 fold
- MAT2A (32571_at) expression fold change upon IL-13 stimulation: 2.5 fold
- MDA5 (51920_at) expression fold change: 3.8 fold
- MED6 (35432_at) expression fold change: 2.7 fold
- MET (1609_g_at) expression, fold change upon IL-13 stimulation: 2.6 fold
- MET (1812_s_at) expression, fold change upon IL-13 stimulation: 5 fold
- MET (35684_at) expression, fold change upon IL-13 stimulation: 3.4 fold
- MFHAS1 (50388_at) expression fold change: 2.3 fold
- MICB (35937_at) expression, fold change upon IL-13 stimulation: 3.5 fold
- MKP-L (38272_at) expression, fold change upon IL-13 stimulation: 2.9 fold
- MMP7 (668_s_at) expression, fold change upon IL-13 stimulation: 2.8 fold
- MP1 (34839_at) expression, fold change upon IL-13 stimulation: 2 fold
- MXI (37014_at) expression fold change: 2.9 fold
- NCF2 (41038_at) expression fold change: 4 fold
- NFIL3 (37544_at) expression fold change: 2.5 fold
- NK4 (39119_s_at) expression fold change upon IL-13 stimulation: 6 fold
- NOS2A (1948_f_at) expression fold change upon IL-13 stimulation: 9.4 fold
- NOS2A (48918_at) expression fold change: 8.3 fold
- NTRK1 (36805_s_at) expression, fold change upon IL-13 stimulation: 8.7 fold
- OAF (39695_at) expression, fold change upon IL-13 stimulation: 4.3 fold
- OAS1 (38389_at) expression fold change upon IL-13 stimulation: 2.4 fold
- OSF-2 (1451_s_at) expression fold change upon IL-13 stimulation: 25.4 fold
- PAK2 (1560_g_at) expression, fold change upon IL-13 stimulation: 2.4 fold
- PITPNB (353_at) expression, fold change upon IL-13 stimulation: 2.8 fold
- PITPNB (35017_f_at) expression, fold change upon IL-13 stimulation: 2.3 fold
- PKD2 (38120_at) expression, fold change upon IL-13 stimulation: 2.7 fold
- PLS1 (39951_at) expression fold change: 5.4 fold
- PMCH (32005_at) expression fold change: 11 fold
- PSMB9 (38287_at) expression fold change upon IL-13 stimulation: 2.6 fold
- PVRL2 (50320_g_at) expression fold change: 2.2 fold
- RASGRP1 (33291_at) expression fold change: 2.8 fold
- RIG-1 (59215_at) expression fold change: 2.8 fold
- SECTM1 (41045_at) expression, fold change upon IL-13 stimulation: 4.4 fold
- SERPINB2 (37185_at) expression fold change: 5.3 fold
- SERPINB4 (1549_s_at) expression fold change: 7.8 fold
- SERPINB6 (34789_at) expression fold change: 2 fold
- SIAT1 (41352_at) expression fold change upon IL-13 stimulation: 8.7 fold
- SLC26A4, pendrin (36376_at) expression fold change: 20.1 fold
- SPHK1 (51923_at) expression fold change: 2.1 fold
- SSI-1 (41592_at) expression, fold change upon IL-13 stimulation: 6.1 fold
- STAT1 (32859_at) expression fold change: 2.1 fold
- TGFB2 (1262_s_at) expression fold change upon IL-13 stimulation: 3.2 fold
